{"source": "patent US11655235B2", "about": "“Pyrrolidine and piperidine compounds” (YUHAN CORPORATION, priority 2019, dated 2023)", "format_in_all_cases": "biochemical", "key": {"recombinant human PREP": {"target": "T1, recombinant human PREP (Homo sapiens, UniProt P48147)", "T1 construct": "purchased R&D System", "T1 sequence (P48147 1-710)": "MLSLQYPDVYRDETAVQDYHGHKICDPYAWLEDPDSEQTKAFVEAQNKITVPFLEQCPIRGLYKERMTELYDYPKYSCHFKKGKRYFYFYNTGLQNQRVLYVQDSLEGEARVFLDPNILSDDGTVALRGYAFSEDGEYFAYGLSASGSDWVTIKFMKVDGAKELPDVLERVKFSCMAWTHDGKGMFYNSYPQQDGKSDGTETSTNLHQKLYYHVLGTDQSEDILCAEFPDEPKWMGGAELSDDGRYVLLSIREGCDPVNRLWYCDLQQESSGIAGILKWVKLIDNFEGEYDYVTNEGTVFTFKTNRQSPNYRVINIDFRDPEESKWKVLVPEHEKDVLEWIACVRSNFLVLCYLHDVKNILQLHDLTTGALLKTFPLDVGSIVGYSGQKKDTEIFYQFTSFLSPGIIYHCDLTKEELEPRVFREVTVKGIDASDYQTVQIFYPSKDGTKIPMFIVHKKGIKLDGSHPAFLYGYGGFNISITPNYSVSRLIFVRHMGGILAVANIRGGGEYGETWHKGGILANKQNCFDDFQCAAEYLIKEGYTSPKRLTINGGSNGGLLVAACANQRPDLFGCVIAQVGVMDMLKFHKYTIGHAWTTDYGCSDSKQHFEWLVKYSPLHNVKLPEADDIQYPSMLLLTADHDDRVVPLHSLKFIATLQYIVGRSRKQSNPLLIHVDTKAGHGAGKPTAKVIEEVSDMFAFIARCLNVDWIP", "experiment": "PREP inhibition, fluorogenic substrate Z-Gly-Pro-AMC", "conditions": "Inhibitory Activity (IC50, nM) PREP, recombinant human PREP", "summary_of_the_method": "(§1)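 Inhibitors are titrated in an 8-point series into the enzyme's assay buffer (DMSO no more than 0.5%). Substrate cleavage at 25 °C is followed by fluorescence, excitation 380 nm and emission 460 nm. IC50 values come from a four-variable logistic model.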"}, "DPP4": {"target": "DPP4 (Homo sapiens, UniProt P27487)", "sequence (P27487 whole entry)": "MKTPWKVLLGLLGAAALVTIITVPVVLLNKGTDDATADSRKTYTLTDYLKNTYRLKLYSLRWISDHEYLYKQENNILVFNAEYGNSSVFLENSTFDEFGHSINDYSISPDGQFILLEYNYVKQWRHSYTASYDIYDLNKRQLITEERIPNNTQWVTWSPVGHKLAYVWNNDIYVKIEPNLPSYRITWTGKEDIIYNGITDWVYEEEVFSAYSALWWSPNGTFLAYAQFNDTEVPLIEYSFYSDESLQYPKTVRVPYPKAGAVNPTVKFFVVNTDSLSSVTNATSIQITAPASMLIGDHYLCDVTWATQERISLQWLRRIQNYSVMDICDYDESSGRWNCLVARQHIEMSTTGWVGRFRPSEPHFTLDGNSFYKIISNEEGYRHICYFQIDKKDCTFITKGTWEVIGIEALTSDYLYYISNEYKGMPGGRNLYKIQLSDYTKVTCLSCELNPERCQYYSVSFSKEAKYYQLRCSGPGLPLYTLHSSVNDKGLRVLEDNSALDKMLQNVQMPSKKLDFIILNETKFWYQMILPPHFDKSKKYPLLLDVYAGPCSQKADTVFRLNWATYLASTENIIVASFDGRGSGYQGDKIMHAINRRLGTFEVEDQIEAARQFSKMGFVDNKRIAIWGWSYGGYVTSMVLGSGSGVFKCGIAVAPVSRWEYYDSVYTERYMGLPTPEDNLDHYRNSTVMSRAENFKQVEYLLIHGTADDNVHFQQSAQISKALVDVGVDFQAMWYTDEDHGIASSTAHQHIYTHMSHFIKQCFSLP", "experiment": "DPP4 inhibition, fluorogenic substrate H-Gly-Pro-AMC", "set-up": "purchased R&D Systems", "conditions": "recombinant human DPP4"}, "recombinant human DPP7": {"target": "T2, recombinant human DPP7 (Homo sapiens, UniProt Q9UHL4)", "T2 construct": "purchased R&D Systems", "experiment": "DPP7 inhibition, fluorogenic substrate Lys-Pro-AMC", "conditions": "recombinant human DPP7", "summary_of_the_method": "as §1"}, "recombinant human DPP9": {"target": "T3, recombinant human DPP9 (Homo sapiens, UniProt Q86TI2)", "T3 construct": "purchased R&D Systems", "T3 sequence (Q86TI2 whole entry)": "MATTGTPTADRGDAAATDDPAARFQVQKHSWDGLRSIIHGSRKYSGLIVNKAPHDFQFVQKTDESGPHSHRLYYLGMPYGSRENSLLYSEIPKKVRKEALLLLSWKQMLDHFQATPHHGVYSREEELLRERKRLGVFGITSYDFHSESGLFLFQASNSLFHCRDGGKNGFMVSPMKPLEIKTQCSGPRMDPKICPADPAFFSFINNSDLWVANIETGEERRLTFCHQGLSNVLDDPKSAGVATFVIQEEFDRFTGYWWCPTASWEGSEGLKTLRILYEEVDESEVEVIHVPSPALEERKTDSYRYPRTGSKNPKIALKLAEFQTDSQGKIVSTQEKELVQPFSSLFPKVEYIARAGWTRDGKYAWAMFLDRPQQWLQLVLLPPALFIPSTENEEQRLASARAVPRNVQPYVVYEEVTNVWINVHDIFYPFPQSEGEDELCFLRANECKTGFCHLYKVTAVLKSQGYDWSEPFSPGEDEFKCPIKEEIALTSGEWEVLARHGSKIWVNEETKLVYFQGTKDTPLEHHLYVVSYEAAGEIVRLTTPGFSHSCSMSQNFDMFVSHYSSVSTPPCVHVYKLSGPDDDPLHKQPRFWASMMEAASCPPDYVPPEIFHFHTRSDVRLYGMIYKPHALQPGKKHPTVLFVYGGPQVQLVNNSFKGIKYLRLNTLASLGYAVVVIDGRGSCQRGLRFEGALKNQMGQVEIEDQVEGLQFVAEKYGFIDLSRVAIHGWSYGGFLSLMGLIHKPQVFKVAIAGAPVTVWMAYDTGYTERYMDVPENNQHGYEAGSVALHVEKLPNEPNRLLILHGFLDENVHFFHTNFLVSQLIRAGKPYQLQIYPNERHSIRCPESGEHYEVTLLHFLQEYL", "experiment": "DPP9 inhibition, fluorogenic substrate H-Gly-Pro-AMC", "conditions": "recombinant human DPP9", "summary_of_the_method": "as §1"}, "Recombinant human FAP": {"target": "T4, Recombinant human FAP (Homo sapiens, UniProt Q12884)", "T4 construct": "purchased R&D systems", "T4 sequence (Q12884 1-760)": "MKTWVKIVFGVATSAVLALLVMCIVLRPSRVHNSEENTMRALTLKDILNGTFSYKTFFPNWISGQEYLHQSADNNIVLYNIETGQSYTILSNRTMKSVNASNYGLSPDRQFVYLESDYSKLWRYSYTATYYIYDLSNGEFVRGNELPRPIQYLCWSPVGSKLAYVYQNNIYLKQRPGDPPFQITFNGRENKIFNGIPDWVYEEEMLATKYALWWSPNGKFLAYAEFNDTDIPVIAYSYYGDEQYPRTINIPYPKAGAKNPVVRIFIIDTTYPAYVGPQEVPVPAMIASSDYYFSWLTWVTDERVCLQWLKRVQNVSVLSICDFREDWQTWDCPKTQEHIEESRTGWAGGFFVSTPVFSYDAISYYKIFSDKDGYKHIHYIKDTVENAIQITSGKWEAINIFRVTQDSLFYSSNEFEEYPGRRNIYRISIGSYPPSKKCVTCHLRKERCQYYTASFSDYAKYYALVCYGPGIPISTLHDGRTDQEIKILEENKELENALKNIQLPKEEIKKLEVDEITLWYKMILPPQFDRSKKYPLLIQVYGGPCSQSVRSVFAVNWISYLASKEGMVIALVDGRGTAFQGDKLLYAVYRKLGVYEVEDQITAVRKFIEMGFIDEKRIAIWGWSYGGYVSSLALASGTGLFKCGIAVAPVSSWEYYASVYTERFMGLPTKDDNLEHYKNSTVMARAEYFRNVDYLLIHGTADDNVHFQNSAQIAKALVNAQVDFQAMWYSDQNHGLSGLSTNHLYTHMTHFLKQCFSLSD", "experiment": "FAP FRET assay, FGF21-sequence FRET peptide substrate", "conditions": "FRET peptide with human FGF21 sequence, 6 μM, 37° C.", "summary_of_the_method": "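FRET peptide bearing human FGF21 sequence (6 μM final) cleaved by 10 ng recombinant human FAP at 37° C in HEPES pH 7.2 buffer with NaCl, BSA and EDTA, DMSO up to 0.1%. Signal-rate decrease versus uninhibited control fitted to a four-variable logistic model for IC50.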"}}}
{"molecule": "N#C[C@@H]1CCCN1C(=O)CN1CCC(Nc2ccc(C(=O)Nc3ccccc3)c3ncccc23)CC1", "note": "[Example 396, 5-[[1-[2-oxo-2-[(2S)-2-cyanopyrrolidin-1-yl]ethyl]-4-piperidyl]amino]-N-phenyl-quinoline-8-carboxamide]", "values": [{"measurement": "IC50", "setting": "recombinant human PREP", "result": 1770, "unit": "nM"}, {"measurement": "IC50", "setting": "DPP4", "result": 16.4, "unit": "µM"}, {"measurement": "IC50", "setting": "recombinant human DPP7", "result": 0.875, "unit": "µM"}, {"measurement": "IC50", "setting": "recombinant human DPP9", "result": 7.42, "unit": "µM"}, {"measurement": "IC50", "setting": "Recombinant human FAP", "result": 0.0031, "unit": "µM"}]}
{"molecule": "CC(=O)Nc1ccc(NC2CCN(CC(=O)N3C[C@@H](F)C[C@H]3C#N)CC2)c2cccnc12", "note": "[Example 409, N-[5-[[1-[2-oxo-2-[(2S,4S)-2-cyano-4-fluoro-pyrrolidin-1-yl]ethyl]-4-piperidyl]amino]-8-quinolyl]acetamide]", "values": [{"measurement": "IC50", "setting": "recombinant human PREP", "result": 1630, "unit": "nM"}, {"measurement": "IC50", "setting": "DPP4", "result": 1.32, "unit": "µM"}, {"measurement": "IC50", "setting": "recombinant human DPP7", "result": 0.0626, "unit": "µM"}, {"measurement": "IC50", "setting": "recombinant human DPP9", "result": 1.86, "unit": "µM"}, {"measurement": "IC50", "setting": "Recombinant human FAP", "result": 0.0075, "unit": "µM"}]}
{"molecule": "N#C[C@@H]1C[C@H](F)CN1C(=O)CN1CCC(Oc2cccc3ncccc23)CC1", "note": "[Example 425, (2S,4S)-4-fluoro-1-[2-[4-(5-quinolyloxy)-1-piperidyl]acetyl]pyrrolidine-2-carbonitrile]", "values": [{"measurement": "IC50", "setting": "recombinant human PREP", "result": 1330, "unit": "nM"}, {"measurement": "IC50", "setting": "DPP4", "result": 7.24, "unit": "µM"}, {"measurement": "IC50", "setting": "recombinant human DPP7", "result": 2.15, "unit": "µM"}, {"measurement": "IC50", "setting": "recombinant human DPP9", "result": 33.8, "unit": "µM"}, {"measurement": "IC50", "setting": "Recombinant human FAP", "result": 0.007, "unit": "µM"}]}
{"molecule": "COc1ccc2nccc(OC3CCN(CC(=O)N4CCC[C@H]4C#N)CC3)c2c1", "note": "[Example 426, (2S)-1-[2-[4-[(6-methoxy-4-quinolyl)oxy]-1-piperidyl]acetyl]pyrrolidine-2-carbonitrile]", "values": [{"measurement": "IC50", "setting": "recombinant human PREP", "result": 10800, "unit": "nM"}, {"measurement": "IC50", "setting": "DPP4", "result": 54.8, "unit": "µM"}, {"measurement": "IC50", "setting": "recombinant human DPP7", "result": 9.4, "unit": "µM"}, {"measurement": "IC50", "setting": "recombinant human DPP9", "result": "≥ 100", "unit": "µM"}, {"measurement": "IC50", "setting": "Recombinant human FAP", "result": 0.0039, "unit": "µM"}]}
